Data on 16 compounds can be found in US20260007681A1, “INDOLE DERIVATIVES AS ESTROGEN RECEPTOR DEGRADERS” (REGENTS OF THE UNIVERSITY OF MICHIGAN, priority 2022, published 2026).

The structures appear in SMILES notation.

Sequence of ER (P03372 whole entry): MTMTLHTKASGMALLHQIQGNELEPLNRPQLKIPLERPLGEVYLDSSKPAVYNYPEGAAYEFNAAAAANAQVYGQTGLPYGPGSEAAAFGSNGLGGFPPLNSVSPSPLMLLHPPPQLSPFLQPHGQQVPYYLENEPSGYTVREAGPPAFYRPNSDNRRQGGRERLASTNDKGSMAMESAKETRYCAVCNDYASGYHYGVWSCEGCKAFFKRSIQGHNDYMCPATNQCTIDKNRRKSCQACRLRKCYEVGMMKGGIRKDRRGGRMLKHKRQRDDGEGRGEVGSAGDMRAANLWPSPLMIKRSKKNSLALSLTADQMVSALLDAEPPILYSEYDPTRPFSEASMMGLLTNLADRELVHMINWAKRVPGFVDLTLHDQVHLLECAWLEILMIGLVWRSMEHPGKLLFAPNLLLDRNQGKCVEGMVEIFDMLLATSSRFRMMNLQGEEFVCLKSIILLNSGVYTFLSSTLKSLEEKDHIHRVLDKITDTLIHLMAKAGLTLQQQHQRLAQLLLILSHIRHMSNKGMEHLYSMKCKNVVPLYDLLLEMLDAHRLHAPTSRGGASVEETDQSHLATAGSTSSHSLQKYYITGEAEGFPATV

In the assay the target is ER (Homo sapiens (Human), UniProt P03372). The assay is described as follows: Western blot analysis (Compounds B1-B278). The format is cell-based. As to conditions: ER degradation by traditional Western blot; DC50 classes. In short, it runs like this:
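Compound-treated cells were lysed in RIPA buffer (Tris.HCl pH 7.6, 1% NP-40, deoxycholate, 0.1% SDS) with protease inhibitors; equal protein was resolved on 10% SDS-PAGE, transferred to PVDF and immunoblotted. Band intensities were quantified and normalized to GAPDH.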
For orientation: Immunoblotting shows a protein as a band on a membrane.
`C[C@@H]1Cc2c([nH]c3ccccc23)[C@@H](c2cnc(N3CCC(C(=O)N4CCC(N5Cc6cc7c(cc6C5)C(=O)N(C5CCC(=O)NC5=O)C7=O)CC4)CC3)nc2)N1CC(F)F` (stereo partly drawn) [Compound B222, 6-(1-(1-(5-((1R,3R)-2-(2,2-difluoroethyl)-3-methyl-2,3,4,9-tetrahydro-1H-pyrido[3,4-b]indol-1-yl)pyrimidin-2-yl)piperidine-4-carbonyl)piperidin-4-yl)-2-(2,6-dioxopiperidin-3-yl)-6,7-dihydropyrrolo[3,4-f]isoindole-1,3(2H,5H)-dione]: the “Traditional Western Degradation Potency” value is “A (“A”: <10 nM)”.

For the compound `C[C@@H]1Cc2c([nH]c3ccccc23)[C@@H](c2cnc(N3CCC(CN4CCC(N5Cc6cc7c(cc6C5)C(=O)N(C5CCC(=O)NC5=O)C7=O)CC4)CC3)nc2)N1CC(F)F` (stereo partly drawn) [Compound B223, 6-(1-((1-(5-((1R,3R)-2-(2,2-difluoroethyl)-3-methyl-2,3,4,9-tetrahydro-1H-pyrido[3,4-b]indol-1-yl)pyrimidin-2-yl)piperidin-4-yl)methyl)piperidin-4-yl)-2-(2,6-dioxopiperidin-3-yl)-6,7-dihydropyrrolo[3,4-f]isoindole-1,3(2H,5H)-dione], the “Traditional Western Degradation Potency” value is “B (“B”: 10-100 nM)”.

As for `C[C@@H]1Cc2c([nH]c3ccccc23)[C@@H](c2ccc(N3CCC4(CC3)CN(C(=O)CN3Cc5cc6c(cc5C3)C(=O)N(C3CCC(=O)NC3=O)C6=O)C4)cc2)N1CC(F)F` (stereo partly drawn) [Compound B224, 6-(2-(7-(4-((1R,3R)-2-(2,2-difluoroethyl)-3-methyl-2,3,4,9-tetrahydro-1H-pyrido[3,4-b]indol-1-yl)phenyl)-2,7-diazaspiro[3.5]nonan-2-yl)-2-oxoethyl)-2-(2,6-dioxopiperidin-3-yl)-6,7-dihydropyrrolo[3,4-f]isoindole-1,3(2H,5H)-dione], the “Traditional Western Degradation Potency” value is listed as “B (“B”: 10-100 nM)”.

In the case of `C[C@@H]1Cc2c([nH]c3ccccc23)[C@@H](c2ccc(N3CCC(C(=O)N4CCC(N5Cc6cc7c(cc6C5)C(=O)N(C5CCC(=O)NC5=O)C7=O)CC4)CC3)cc2)N1CC(F)F` (stereo partly drawn) [Compound B225, 6-(1-(1-(4-((1R,3R)-2-(2,2-difluoroethyl)-3-methyl-2,3,4,9-tetrahydro-1H-pyrido[3,4-b]indol-1-yl)phenyl)piperidine-4-carbonyl)piperidin-4-yl)-2-(2,6-dioxopiperidin-3-yl)-6,7-dihydropyrrolo[3,4-f]isoindole-1,3(2H,5H)-dione], the “Traditional Western Degradation Potency” value is on record as “B (“B”: 10-100 nM)”.

For `C[C@@H]1Cc2c([nH]c3ccccc23)[C@@H](c2ccc(N3CCC(CN4CCC(N5Cc6cc7c(cc6C5)C(=O)N(C5CCC(=O)NC5=O)C7=O)CC4)CC3)cc2)N1CC(F)F` (stereo partly drawn) [Compound B226, 6-(1-((1-(4-((1R,3R)-2-(2,2-difluoroethyl)-3-methyl-2,3,4,9-tetrahydro-1H-pyrido[3,4-b]indol-1-yl)phenyl)piperidin-4-yl)methyl)piperidin-4-yl)-2-(2,6-dioxopiperidin-3-yl)-6,7-dihydropyrrolo[3,4-f]isoindole-1,3(2H,5H)-dione], the “Traditional Western Degradation Potency” value is reported as “B (“B”: 10-100 nM)”.

As to `C[C@@H]1Cc2c([nH]c3ccccc23)[C@@H](c2ccc(N3CCC4(CCN(C(=O)CN5Cc6cc7c(cc6C5)C(=O)N(C5CCC(=O)NC5=O)C7=O)CC4)CC3)cc2)N1CC(F)F` (stereo partly drawn) [Compound B227, 6-(2-(9-(4-((1R,3R)-2-(2,2-difluoroethyl)-3-methyl-2,3,4,9-tetrahydro-1H-pyrido[3,4-b]indol-1-yl)phenyl)-3,9-diazaspiro[5.5]undecan-3-yl)-2-oxoethyl)-2-(2,6-dioxopiperidin-3-yl)-6,7-dihydropyrrolo[3,4-f]isoindole-1,3(2H,5H)-dione], the “Traditional Western Degradation Potency” value is listed as “B (“B”: 10-100 nM)”.

Regarding `C[C@@H]1Cc2c([nH]c3ccccc23)[C@@H](c2ccc(N3CCC4(CCN(C(=O)CN5Cc6cc7c(cc6C5)C(=O)N(C5CCC(=O)NC5=O)C7=O)CC4)CC3)cn2)N1CC(F)F` (stereo partly drawn) [Compound B228, 6-(2-(9-(6-((1S,3R)-2-(2,2-difluoroethyl)-3-methyl-2,3,4,9-tetrahydro-1H-pyrido[3,4-b]indol-1-yl)pyridin-3-yl)-3,9-diazaspiro[5.5]undecan-3-yl)-2-oxoethyl)-2-(2,6-dioxopiperidin-3-yl)-6,7-dihydropyrrolo[3,4-f]isoindole-1,3(2H,5H)-dione], the “Traditional Western Degradation Potency” value is “C (“C”: >100 nM)”.

As to `C[C@@H]1Cc2c([nH]c3ccccc23)[C@@H](c2ccc(N3CCC4(CCN(C(=O)CN5Cc6cc7c(cc6C5)C(=O)N(C5CCC(=O)NC5=O)C7=O)CC4)CC3)nc2)N1CC(F)F` (stereo partly drawn) [Compound B229, 6-(2-(9-(5-((1R,3R)-2-(2,2-difluoroethyl)-3-methyl-2,3,4,9-tetrahydro-1H-pyrido[3,4-b]indol-1-yl)pyridin-2-yl)-3,9-diazaspiro[5.5]undecan-3-yl)-2-oxoethyl)-2-(2,6-dioxopiperidin-3-yl)-6,7-dihydropyrrolo[3,4-f]isoindole-1,3(2H,5H)-dione], the “Traditional Western Degradation Potency” value was “B (“B”: 10-100 nM)”.

Consider `C[C@@H]1Cc2c([nH]c3ccccc23)[C@@H](c2ccc(N3CCC4(CCN(CC(=O)N5Cc6cc7c(cc6C5)C(=O)N(C5CCC(=O)NC5=O)C7=O)CC4)CC3)cn2)N1CC(F)F` (stereo partly drawn) [Compound B230, 6-(2-(9-(6-((1S,3R)-2-(2,2-difluoroethyl)-3-methyl-2,3,4,9-tetrahydro-1H-pyrido[3,4-b]indol-1-yl)pyridin-3-yl)-3,9-diazaspiro[5.5]undecan-3-yl)acetyl)-2-(2,6-dioxopiperidin-3-yl)-6,7-dihydropyrrolo[3,4-f]isoindole-1,3(2H,5H)-dione], for which the “Traditional Western Degradation Potency” value is “C (“C”: >100 nM)”.

For the compound `C[C@@H]1Cc2c([nH]c3ccccc23)[C@@H](c2ccc(N3CCC4(CCN(C(=O)CN5Cc6cc7c(cc6C5)C(=O)N(C5CCC(=O)NC5=O)C7=O)CC4)CC3)cc2F)N1CC(F)F` (stereo partly drawn) [Compound B231, 6-(2-(9-(4-((1R,3R)-2-(2,2-difluoroethyl)-3-methyl-2,3,4,9-tetrahydro-1H-pyrido[3,4-b]indol-1-yl)-3-fluorophenyl)-3,9-diazaspiro[5.5]undecan-3-yl)-2-oxoethyl)-2-(2,6-dioxopiperidin-3-yl)-6,7-dihydropyrrolo[3,4-f]isoindole-1,3(2H,5H)-dione], the “Traditional Western Degradation Potency” value is “B (“B”: 10-100 nM)”.

Regarding `C[C@@H]1Cc2c([nH]c3ccccc23)[C@@H](c2ccc(N3CCC(C(=O)N4CCC(N5Cc6cc7c(cc6C5)C(=O)N(C5CCC(=O)NC5=O)C7=O)CC4)CC3)cc2F)N1CC(F)F` (stereo partly drawn) [Compound B232, 6-(1-(1-(4-((1R,3R)-2-(2,2-difluoroethyl)-3-methyl-2,3,4,9-tetrahydro-1H-pyrido[3,4-b]indol-1-yl)-3-fluorophenyl)piperidine-4-carbonyl)piperidin-4-yl)-2-(2,6-dioxopiperidin-3-yl)-6,7-dihydropyrrolo[3,4-f]isoindole-1,3(2H,5H)-dione], the “Traditional Western Degradation Potency” value is recorded as “A (“A”: <10 nM)”.

For the compound `C[C@@H]1Cc2c([nH]c3ccccc23)[C@@H](c2ccc(C3CCC(C(=O)N4CCC(N5Cc6cc7c(cc6C5)C(=O)N(C5CCC(=O)NC5=O)C7=O)CC4)CC3)cc2F)N1CC(F)F` (stereo partly drawn) [Compound B233, 6-(1-(4-(4-((1R,3R)-2-(2,2-difluoroethyl)-3-methyl-2,3,4,9-tetrahydro-1H-pyrido[3,4-b]indol-1-yl)-3-fluorophenyl)cyclohexane-1-carbonyl)piperidin-4-yl)-2-(2,6-dioxopiperidin-3-yl)-6,7-dihydropyrrolo[3,4-f]isoindole-1,3(2H,5H)-dione], the “Traditional Western Degradation Potency” value was “B (“B”: 10-100 nM)”.

With `C[C@@H]1Cc2c([nH]c3ccccc23)[C@@H](c2ccc(C3CCC(C(=O)N4CCC(N5Cc6cc7c(cc6C5)C(=O)N(C5CCC(=O)NC5=O)C7=O)CC4)CC3)cn2)N1CC(F)F` (stereo partly drawn) [Compound B234, 6-(1-(4-(6-((1S,3R)-2-(2,2-difluoroethyl)-3-methyl-2,3,4,9-tetrahydro-1H-pyrido[3,4-b]indol-1-yl)pyridin-3-yl)cyclohexane-1-carbonyl)piperidin-4-yl)-2-(2,6-dioxopiperidin-3-yl)-6,7-dihydropyrrolo[3,4-f]isoindole-1,3(2H,5H)-dione], the “Traditional Western Degradation Potency” value was “C (“C”: >100 nM)”.

As to `C[C@@H]1Cc2c([nH]c3ccccc23)[C@@H](c2ccc(C3=CCC(C(=O)N4CCC(N5Cc6cc7c(cc6C5)C(=O)N(C5CCC(=O)NC5=O)C7=O)CC4)CC3)nc2)N1CC(F)F` (stereo partly drawn) [Compound B235, 6-(1-(4-(5-((1R,3R)-2-(2,2-difluoroethyl)-3-methyl-2,3,4,9-tetrahydro-1H-pyrido[3,4-b]indol-1-yl)pyridin-2-yl)cyclohex-3-ene-1-carbonyl)piperidin-4-yl)-2-(2,6-dioxopiperidin-3-yl)-6,7-dihydropyrrolo[3,4-f]isoindole-1,3(2H,5H)-dione], the “Traditional Western Degradation Potency” value is reported as “C (“C”: >100 nM)”.

As for `C[C@@H]1Cc2c([nH]c3ccccc23)[C@@H](c2cnc(C3=CCC(C(=O)N4CCC(N5Cc6cc7c(cc6C5)C(=O)N(C5CCC(=O)NC5=O)C7=O)CC4)CC3)nc2)N1CC(F)F` (stereo partly drawn) [Compound B236, 6-(1-(4-(5-((1R,3R)-2-(2,2-difluoroethyl)-3-methyl-2,3,4,9-tetrahydro-1H-pyrido[3,4-b]indol-1-yl)pyrimidin-2-yl)cyclohex-3-ene-1-carbonyl)piperidin-4-yl)-2-(2,6-dioxopiperidin-3-yl)-6,7-dihydropyrrolo[3,4-f]isoindole-1,3(2H,5H)-dione], the “Traditional Western Degradation Potency” value is recorded as “B (“B”: 10-100 nM)”.

Take `C[C@@H]1Cc2c([nH]c3ccccc23)[C@@H](c2ccc(C3=CCC(C(=O)N4CCC(N5Cc6cc7c(cc6C5)C(=O)N(C5CCC(=O)NC5=O)C7=O)CC4)CC3)cc2)N1CC(F)F` (stereo partly drawn) [Compound B237, 6-(1-(4′-((1R,3R)-2-(2,2-difluoroethyl)-3-methyl-2,3,4,9-tetrahydro-1H-pyrido[3,4-b]indol-1-yl)-2,3,4,5-tetrahydro-[1,1′-biphenyl]-4-carbonyl)piperidin-4-yl)-2-(2,6-dioxopiperidin-3-yl)-6,7-dihydropyrrolo[3,4-f]isoindole-1,3(2H,5H)-dione]: the “Traditional Western Degradation Potency” value is on record as “B (“B”: 10-100 nM)”.
